Measured values taken from patent US6358987B1, “Metalloproteinase inhibitors” (British Biotech Pharmaceuticals Limited, priority 1997, dated 2002).

First: CC(C)C[C@@H](C(=O)N[C@H](CO)Cc1ccccc1)[C@H](CN(C)S(C)(=O)=O)C(=O)NO [Example 3, N^4-(1S-Benzyl-2-hydroxy-ethyl)-N^1-hydroxy-3R-isobutyl-2R-[(methanesulfonyl-methyl-amino)-methyl]-succinamide]
Second: CC(C)C[C@@H](C(=O)N[C@H](CO)Cc1ccc(O)cc1)[C@H](CN(C)S(C)(=O)=O)C(=O)NO [Example 6, N^1-Hydroxy-N^4-[2-hydroxy-1S-(4-hydroxy-benzyl)-ethyl]-3R-isobutyl-2S-[(methanesulfonyl-methyl-amino)-methyl]-succinamide]
The melting point of the first is higher: 200 to 202 °C for the first, 125 to 128 °C for the second.

First: COc1ccc(S(=O)(=O)N(C)C[C@H](C(=O)NO)[C@@H](CCCc2ccc(-c3ccccc3)cc2)C(=O)N[C@H](CO)C(C)(C)C)cc1 [Example 13, 3R-(3-Biphenyl4-yl-propyl)-N^1-hydroxy-N^4-(1S-hydroxymethyl-2,2-dimethyl-propyl)-2S-{[(4-methoxy-benzenesulfonyl)-methyl-amino]-methyl}-succinamide]
Second: COc1ccc(S(=O)(=O)N(C)C[C@H](C(=O)NO)[C@@H](CCCc2ccc(-c3ccccc3)cc2)C(=O)N[C@H](CO)Cc2ccccc2)cc1 [Example 14, N^4-(1S-Benzyl-2-hydroxy-ethyl)-3R-(3-biphenyl-4-yl-propyl)-N^1-hydroxy-2S-{[(4-methoxy-benzenesulfonyl)-methyl-amino]-methyl}-succinamide]
The melting point of the first is lower: 226 to 228 °C for the first, 245 to 247 °C for the second.

CN(C[C@H](C(=O)NO)[C@@H](CCCc1ccc(-c2ccccc2)cc1)C(=O)N[C@H](CO)Cc1ccccc1)S(C)(=O)=O [Example 12, N^4-(1S-Benzyl-2-hydroxy-ethyl)-3R-(3-biphenyl-4-yl-propyl)-N^1-hydroxy-2S-[(methanesulfonyl-methyl-amino)-methyl]-succinamide] and COc1ccc(S(=O)(=O)N(C)C[C@H](C(=O)NO)[C@@H](CC(C)C)C(=O)N[C@H](CO)Cc2ccccc2)cc1 [Example 8, N^4-(1S-Benzyl-2-hydroxy-ethyl)-N^1-hydroxy-3R-isobutyl-2S-{[(4-methoxy-benzenesulfonyl)-methyl-amino]-methyl}-succinamide] cannot be ordered by melting point: 201 to 207 °C for the first, 196 to 203 °C for the second.

First: CC(C)C[C@@H](C(=O)N[C@H](C(=O)N(C)C)C(C)(C)C)[C@H](CN(C)S(C)(=O)=O)C(=O)NO [Example 1]
Second: CC(C)C[C@@H](C(=O)N[C@H](CO)C(C)(C)C)[C@H](CN(C)S(C)(=O)=O)C(=O)NO [Example 4, N^1-Hydroxy-N^4-(1S-hydroxymethyl-2,2-dimethylpropyl)-3R-isobutyl-2R-[(methanesulfonyl-methyl-amino)-methyl]-succinamide]
The melting point of the first is higher: 216 to 218 °C for the first, 167 to 169 °C for the second.

First: COCCOCCNC(=O)[C@@H](NC(=O)[C@H](CC(C)C)[C@H](CN(C)S(C)(=O)=O)C(=O)NO)C(C)(C)C [Example 2, N^1-Hydroxy-3R-isobutyl-2R-[(methanesulfonyl-methyl-amino)-methyl]-N^4-{1S-[2-(2-methoxy-ethoxy)-ethyl-carbamoyl]-2,2-dimethyl-propyl}-succinamide]
Second: COc1ccc(S(=O)(=O)N(C)C[C@H](C(=O)NO)[C@@H](CC(C)C)C(=O)N[C@H](C(=O)N(C)C)C(C)(C)C)cc1 [Example 7, N^4-(1S-Dimethylcarbamoyl-2,2-dimethyl-propyl)-N^1-hydroxy-3R-isobutyl-2S-{[(4-methoxy-benzenesulfonyl)-methyl-amino]-methyl}-succinamide]
The melting point of the first is lower: 192 to 193 °C for the first, 217 to 222 °C for the second.

First: COc1ccc(S(=O)(=O)N(C)C[C@H](C(=O)NO)[C@@H](CC(C)C)C(=O)N[C@H](CO)Cc2c[nH]cn2)cc1 [Example 9]
Second: CC(C)C[C@@H](C(=O)N[C@H](CO)Cc1c[nH]cn1)[C@H](CN(C)S(C)(=O)=O)C(=O)NO [Example 5, N^1-Hydroxy-N^4-[2-hydroxy-1S-(1H-imidazol-4-ylmethyl)-ethyl]-3R-isobutyl-2S-[(methanesulfonyl-methyl-amino)-methyl]-succinamide]
The melting point of the first is lower: 208 to 209 °C for the first, 219 to 221 °C for the second.

With COc1ccc(S(=O)(=O)N(C)C[C@H](C(=O)NO)[C@@H](CC2CCCC2)C(=O)N[C@H](CO)C(C)(C)C)cc1 [Example 10, 3R-Cyclopentylmethyl-N^1-hydroxy-N^4-(1S-hydroxymethyl-2,2-dimethyl-propyl)-2S-{[(4-methoxy-benzenesulfonyl)-methyl-amino]-methyl}-succinamide] the melting point was 181 to 184 °C.
